This data set in a line: Human HepG2 cell viability assay in 384 well format. The conditions noted are these: HepG2 cells, read-out: Inhibition. The arrangement: dose 125 nL, time 70.5 hour; concentration not given beside the values. It counts as toxicity, cell-based.
For the compound `Cc1nn(C)c(C)c1C1CCCN1CCOc1cccc(C#N)c1` (stereo not drawn), the cytotoxicity at 70.5 h is -3.95%. For `CCOCCN1CCN(CCC(=O)N2CCCCC2)CC1C` (stereo not drawn), the cytotoxicity at 70.5 h is -0.119%. On to `COC(=O)C(C)(C)NC(=O)c1cc2sc(N(C)C)nc2s1`, for which the cytotoxicity at 70.5 h was -13.9%. As to `Cc1csc(CNC(=O)NC2CCCN(S(C)(=O)=O)C2)n1` (stereo not drawn), the cytotoxicity at 70.5 h is -12.3%.

Regarding `c1csc(-c2cc(CN3CCN(c4cnccn4)CC3)no2)c1`, the cytotoxicity at 70.5 h was -14.8%. In the case of `CCc1noc(C(C)N2CCN(c3ncnc4sccc34)CC2)n1` (stereo not drawn), the cytotoxicity at 70.5 h was 1.35%. Take `CC(NCc1ccc(OCC(N)=O)cc1)c1ccc2c(c1)CCCC2` (stereo not drawn): the cytotoxicity at 70.5 h was -4.04%. On to `CN(C)c1cc2c(nn1)CCN(C(=O)c1cc3c(s1)CCC3)C2`, for which the cytotoxicity at 70.5 h was 8.88%. In the case of `Cn1cc(C(=O)N2CCCN(c3cccnn3)CC2)c2ccccc21`, the cytotoxicity at 70.5 h was -0.532%. As to `CCNc1cc2c(nn1)CCN(C(=O)C1Cc3ccccc3S1)C2` (stereo not drawn), the cytotoxicity at 70.5 h was -6.84%. With `CCNc1cc2c(nn1)CCN(C(=O)c1cc3c(s1)CCOC3)C2`, the cytotoxicity at 70.5 h was -9.07%. For the compound `COc1cc(OC)cc(N2CCC(NC(=O)c3cccn3C)CC2)c1`, the cytotoxicity at 70.5 h is -13.4%. The result for `COCCN1CCC(CNC(=O)Nc2ccc(-c3ccccc3)cc2)C1` (stereo not drawn) reads 1.85%; that for `CCOCCN1CCN(CC(=O)N2CCCC2)CC1C` (stereo not drawn), -7.94%; that for `CC(CNC(=O)c1ccc(C#N)cc1)N1CCc2ccccc21` (stereo not drawn), 0.334%. Take `Cc1ccc(N2CCCN(C(=O)c3cn(C)c4ccccc34)CC2)nn1`: the cytotoxicity at 70.5 h was -7.87%.

`COCCNC1(c2ccc(Cl)cc2)CCOCC1`: the cytotoxicity at 70.5 h is 11%.

`CCN(CC1CCOC1)C(=O)NCc1ccc(-n2cncn2)nc1` (stereo not drawn): the cytotoxicity at 70.5 h was -1.6%. Consider `Cc1ccc(C(=O)N(Cc2cccc(F)c2)C2CC2)c(=O)[nH]1`, for which the cytotoxicity at 70.5 h is -2.11%.

With `Cc1ccc(C(=O)N(Cc2ccc(F)cc2F)C2CC2)c(=O)[nH]1`, the cytotoxicity at 70.5 h is -2.76%.

In the case of `CN(CCCNC(=O)c1cccc(OCC(N)=O)c1)CC(F)(F)F`, the cytotoxicity at 70.5 h stood at 0.403%. Regarding `CN1N=C(C(=O)N2CCCN(c3ncccc3C#N)CC2)CCC1=O`, the cytotoxicity at 70.5 h turned out to be 3.72%.

With `CCn1ccnc1CN1CCN(c2ncnc3ccsc23)CC1`, the cytotoxicity at 70.5 h is -3.44%.

For the compound `CCn1ccnc1CN1CCN(c2ncnc3ccccc23)CC1`, the cytotoxicity at 70.5 h was -2.5%.

Consider `Cn1ccnc1CN1CCN(c2ncnc3ccsc23)CC1`, for which the cytotoxicity at 70.5 h is -0.211%.

`Cc1cc(CNC(=O)N2CCc3ccccc32)on1`: the cytotoxicity at 70.5 h was -1.25%.

Turning to `CN1N=C(C(=O)N2CCN(c3ncccc3Cl)CC2)CCC1=O`, the cytotoxicity at 70.5 h was found to be 12%. As for `Cn1cc(N2CCCC(Nc3ccc4c(c3)NC(=O)CC4)C2=O)cn1` (stereo not drawn), the cytotoxicity at 70.5 h was -1.14%. The result for `O=C(c1ccc(NCc2ccco2)nc1)N1CCc2ccccc21` reads -3.94%. Consider `Cn1cc(N2CCCC(Nc3ccc4c(c3)CCC(=O)N4)C2=O)cn1` (stereo not drawn), for which the cytotoxicity at 70.5 h came out at 0.589%. As for `Cc1noc(C)c1CCCNC(=O)C1CCCN(C(=O)C2CC2)C1` (stereo not drawn), the cytotoxicity at 70.5 h was -0.841%. Take `COCCC(=O)N1CCC(Nc2ncc(Br)cn2)CC1`: the cytotoxicity at 70.5 h was -0.761%. As for `CC(C)OCCNC1(c2ccc(Cl)cc2)CCOCC1`, the cytotoxicity at 70.5 h was -0.58%. Regarding `CC(c1cccnc1)N1CCN(C(=O)NCc2cnn(C)c2)CC1` (stereo not drawn), the cytotoxicity at 70.5 h was -1.81%.

In the case of `CC(C)CNC(=O)COc1cccc[n+]1[O-]`, the cytotoxicity at 70.5 h came to 0.267%. The result for `COCc1ccccc1C(=O)NCC(c1c(F)cccc1F)N(C)C` (stereo not drawn) reads 0.326%; that for `COC1CCN(CCNC(=O)NCC(C)c2cccc(C)c2)CC1` (stereo not drawn), 9.93%. For the compound `COc1ccc2c(c1)CCCN2C(=O)CN1CCOC(C)C1` (stereo not drawn), the cytotoxicity at 70.5 h stood at 0.691%. For the compound `CN(CCCNC(=O)c1ccccc1F)CC(F)(F)F`, the cytotoxicity at 70.5 h was -2.12%. Turning to `COCC(=O)N1CCN(C(=O)C2(c3ccc(C)c(OC)c3)CC2)CC1`, the cytotoxicity at 70.5 h is -2.36%.

Turning to `O=C(Cc1csc(Cc2ccccn2)n1)NCCCN1CCCC1=O`, the cytotoxicity at 70.5 h is 32.1%. On to `N#Cc1c(F)cccc1Nc1cnn(CC(=O)N2CCOCC2)c1`, for which the cytotoxicity at 70.5 h is 39.8%. With `Cc1ccccc1CN(C)C(C(N)=O)c1ccccc1` (stereo not drawn), the cytotoxicity at 70.5 h is -16.6%. Turning to `CN(C)c1ncccc1CNc1snc(Cl)c1C#N`, the cytotoxicity at 70.5 h is -77.9%.

`CN(Cc1cnn(C)c1)C(=O)Cc1ccc2c(c1)OCCO2`: the cytotoxicity at 70.5 h is -62.7%. The same measure for `N#Cc1c(Cl)nsc1NCc1cccnc1OCC(F)(F)F`: -105%; for `CC(C(N)=O)N(C)Cc1ccccc1C(F)(F)F` (stereo not drawn): -87.9%; for `COCC(=O)N1CCN(Cc2csc(-c3ncccn3)n2)CC1`: -2.92%. For `Cc1c(C(=O)NCCC(C)C)nnn1-c1cccc2c1CCN(C)C2`, the cytotoxicity at 70.5 h is -5.25%. Regarding `CCC(C)(C)NC(=O)c1nnn(-c2cccc3c2CCN(C)C3)c1C`, the cytotoxicity at 70.5 h amounted to 9.39%. On to `COCCNC(=O)Nc1cccc2c1CCN(S(C)(=O)=O)C2`, for which the cytotoxicity at 70.5 h was -0.282%. The same measure for `Cc1cc(C)n(C2CN(CC(=O)N(C)Cc3ccsc3)C2)n1`: -1.75%. On to `CSCC(=O)Nc1cccc(Oc2ccccn2)c1`, for which the cytotoxicity at 70.5 h turned out to be 9.83%. In the case of `CCN(CC)C(=O)Nc1cccc(Oc2ccccn2)c1`, the cytotoxicity at 70.5 h is 20.3%. The result for `CCNC(=O)N(CCCO)C1CCCc2ccccc21` (stereo not drawn) reads -3.93%. Consider `N#Cc1cccc(S(=O)(=O)N2CCCCC2C(N)=O)c1` (stereo not drawn), for which the cytotoxicity at 70.5 h was -3.12%. The result for `CCOCCOC(C)C(=O)NCc1cn2cc(Cl)ccc2n1` (stereo not drawn) reads 15.2%; that for `CC(=O)Nc1cccc(OCCNC(=O)N(C)Cc2ccccc2)c1`, 3.43%; that for `CCCC(C(=O)NCCc1nc(C)cs1)N(C)C` (stereo not drawn), 2.88%. The result for `Cc1nc(C)n(CC2CCCN(Cc3nc(-c4ccco4)no3)C2)n1` (stereo not drawn) reads -3.87%; that for `CC(O)CN1CCN(C(=O)c2cnc(OC(C)C)c(Cl)c2)CC1` (stereo not drawn), 5%.

Take `Cc1ccccc1CN(C)C(=O)Cn1nc(-c2ccc(F)cc2)oc1=O`: the cytotoxicity at 70.5 h was 29.6%. Consider `Cc1cc(NCc2ccccc2CN2CCCCC2)n2ncnc2n1`, for which the cytotoxicity at 70.5 h was -10.1%. On to `Cc1cc(=O)n2ncnc2n1CC(O)c1ccc(F)cc1F` (stereo not drawn), for which the cytotoxicity at 70.5 h is -16.6%.

For `NC(=O)NC(=O)CCN1CCC(C(=O)c2cc(F)ccc2F)CC1`, the cytotoxicity at 70.5 h is -12.1%. As to `O=C(CCN1CCC(C(=O)c2cc(F)ccc2F)CC1)NC1CCCC1`, the cytotoxicity at 70.5 h is -17.8%. Take `O=C(c1cccnc1)N1CCCC1C1CCN(Cc2ccccc2)CC1` (stereo not drawn): the cytotoxicity at 70.5 h was -13.7%. For `COCC(C)NC(=O)Nc1cc(-c2ccccc2C)nn1CCO` (stereo not drawn), the cytotoxicity at 70.5 h was -4.5%.

`CC(C)S(=O)(=O)NC(=O)c1cc(-c2cccc(Cl)c2)no1`: the cytotoxicity at 70.5 h was -11.8%. The result for `Cc1n[nH]c(C2CN(C(=O)c3ccoc3C)CCO2)n1` (stereo not drawn) reads 1.53%; that for `CN(C)S(=O)(=O)c1cccc(CNc2cc(CO)ccc2Cl)c1`, -13.5%; that for `Cc1ccc(C(=O)N2CCSCC2)cc1NC(C)C`, -3.36%. The same measure for `CC(NCc1ccc(OCC(N)=O)cc1)c1ccc(Cl)cc1Cl` (stereo not drawn): -5.48%.

These data come from ChEMBL document CHEMBL3507680, “University of Dundee, Gates Library screen for HepG2 cell viability”.
